These results are taken from BindingDB's records for doi:10.1021/acs.jmedchem.5b00109 (Peking Union Medical College, 2015).

The term IC50 denotes the concentration at which inhibition is half-maximal.

The assay can be described thus: Inhibition of HIV-1 HXB2 gp41 N-terminal heptad repeat-mediated fusion between infected HL2/3 cells to target TZM-bl cells after 6 hrs by luciferase reporter gene assay. In general terms: In a reporter assay the amount or activity of a reporter protein is the signal.

For H-MTWEAWDRAIAEYAARIEALIR-OH, the IC50 came to 59 nM.

In turn, “H-MTWEAWDRAIAEYAARIEALIRAAQEQQEKNEAALREL-OH” gave an IC50 of 0.86 nM.

Substance H-MTWEEWDKKIEEYTKKIEELI-OH showed an IC50 of 2.2 nM.

For the substance H-MTWEEWDKKIEEYTKKIEELIKKS-OH, the IC50 is 2.3 nM.

Substance H-TTWEAWDRAIAEYAARIEALIR-OH had an IC50 above 2250 nM.

Consider H-TTWEEWDKKIEEYTKKIEELIKKS-OH, for which half-maximal inhibition (IC50) was put at 18 nM.

“H-WEAWDRAIAEYAARIEALIRAAQEQQEKNEAALREL-OH”: half-maximal inhibition (IC50) was put at 0.34 nM.
